# Laboratory results taken from US20100280098A1, “RECEPTOR TARGETED OLIGONUCLEOTIDES” (priority 2007, published 2010).
# Entries after “also recorded” stand apart in the source; their conditions may differ.
# What was measured:
# A375SM-Luc705-B cells [1] = assay: Luciferase splice-correction assay with peptide-oligonucleotide conjugates; format: cell-based; conditions: for luciferase expression: dose-response and mismatch control studies, luciferase after 48 h
# Description: Cell Lines and Plasmids: A375SM melanoma cells were obtained from Dr. J. Bear (University of North Carolina, Chapel Hill, N.C., United States of America), and were cultured in Dulbecco's minimum essential medium (DMEM; Invitrogen, Carlsbad, Calif., United States of America) supplemented with L-glutamine and 10% fetal bovine serum (FBS). Plasmid pLuc/705, containing an aberrant intron inserted into the firefly luciferase coding sequence, was obtained from Dr. R. Kole (University of North Carolina, Chapel Hill, N.C., United States of America). See Kang et al. (1998) Biochemistry, 37, 6235-6239. Stable transfectants were obtained by cotransfecting A375SM cells with one part of hygromycin resistant plasmid pcDNA3.1(+)/hygro (Invitrogen, Carlsbad, Calif., United States of America) and ten parts of pLuc/705 using LIPOFECTAMINE™ 2000 (Invitrogen, Carlsbad, Calif., United States of America) as per manufacturer's instructions. Selection was carried out in DMEM containing 200 μg/mL hygromycin and 10% FBS. The resulting pool of hygromycin resistant cells was referred to as A375SM-Luc705-B.
# Oligonucleotide treatment and luciferase assay: A375SM-Luc705-B cells were plated on 12 well plates (at 1.0 or 1.5×10^5 cells per well in various experiments) in DMEM supplemented with 10% FBS. The following day, medium was changed to reduced serum OPTI-MEM I (Invitrogen, Carlsbad, Calif., United States of America). […] Four hours after treatment, 1% FBS was added to each well. Twenty four hours after oligonucleotide treatment, medium was replaced with DMEM containing 1% FBS, and at various times thereafter cell lysates were collected for luciferase assay.
# Cells were usually harvested 48 hours after oligonucleotide treatment, or at times indicated in the figures, and activity determined using a Luciferase assay kit (Promega, Madison, Wis., United States of America). Measurements were performed on a Monolight 2010 instrument (Analytical Luminescence Laboratory, San Diego, Calif., United States of America).
# A375SM-Luc705-B cells [2] = assay: Luciferase splice-correction assay with albumin conjugates; format: cell-based
# Description: Oligonucleotide Treatment of Cells and Luciferase Assay: A375SM-Luc705-B cells were seeded onto 12 well plates at 1×10^5 cells per well in medium containing 10% FBS. […] After 4 h of treatment, FBS was added to each well to 1%. After 24 h, cells were washed with DMEM medium containing 10% FBS and incubated in DMEM supplemented with 1% FBS for 48 h prior to harvest.
# A375SM-Luc705-B cells [3] = assay: Total cellular uptake of Tamra-labeled oligonucleotides (microfluorimeter); format: cell-based; conditions: for cell viability: 1-10 mM β-cyclodextrin, 0.2-20 μM cytochalasin D; for effect on uptake of the RGD-oligonucleotide conjugate: inhibitor 15 min before 100 nM RGD-623-Tamra, uptake after 4 h
# From the text: (§1) Cell Uptake, Confocal Fluorescence Microscopy, and Flow Cytometry: Total cellular uptake of Tamra-labeled oligonucleotides was monitored using a Nanodrop microfluorimeter (Nanodrop Technologies, Wilmington, Del., United States of America). After treatment with oligonucleotides the cells were lysed in a mild non-ionic detergent buffer and the Tamra fluorescence (emission 583 nm) was quantitated based on a linear standard curve of unconjugated Tamra in buffer. Intracellular distribution of Tamra-labeled oligonucleotides was examined using an Olympus Confocal FV300 fluorescent microscope (Olympus America Inc., Center Valley, Pa., United States of America) with 60X-oil immersion objective, as previously described. See Astriab-Fisher et al. (2004) Biochem. Pharmacol., 68, 403-407. Expression levels of αvβ3 were monitored by immunostaining with an anti-human-αvβ3 monoclonal (Chemicon, Temecula, Calif., United States of America) followed by an Alexa 488 rabbit antimouse secondary antibody, with analysis by flow cytometry using a DakoCytomation (Glostrop, Denmark) machine.
# A375SM-Luc705-B cells [4] = assay: Subcellular distribution and co-localization by confocal fluorescence microscopy (peptide conjugate); format: cell-based; conditions: for co-localization with dextran / co-localization with transferrin: 2 h; for co-localization with dextran / co-localization with transferrin / co-localization with transferrin or dextran markers: live cells, 100 nM; for co-localization with transferrin or dextran markers: 24 h
# From the text: as §1
# A375SM-Luc705-B cells [5] = assay: Total cellular accumulation of albumin conjugates (fluorimeter); format: cell-based; conditions: nontoxic concentrations, 30 min prior to 100 nM conjugate, 4 h
# Description: Cellular Uptake and Confocal Microscopy: Cells were seeded onto either 12 well plates at 1×10^5 cells per well for cellular uptake measurements or in 12 well glass-bottom plates at 2×10^4 cells per well for live cell analysis by confocal microscopy. […], the cells were either lysed for measurement of Tamra fluorescence using a Nanodrop microfluorimeter (Nanodrop Technologies, Wilmington, Deleware, United States of America) or washed with DMEM containing 10% FBS and then placed in DMEM without phenol red, supplemented with 1% FBS, for confocal microscopy analysis. Co-localization of Tamra-labeled oligonucleotides with Alexa 488 labeled Transferrin or Dextran (Molecular Probes, Beaverton, Oreg., United States of America) in live cell was also examined by confocal microscopy. An Olympus confocal microscope with a 60× objective lens was used, and the data were processed using Fluoview software (Olympus, Center Valley, Pa., United States of America) as described in Example 1.
# [6] = test system: αvβ3-positive M21+ human melanoma cells; assay: Total cellular uptake in αvβ3-positive cells; format: cell-based; conditions: 12.5-100 nM
# From the text: (§2) Results represent means and standard errors of triplicate determinations and are expressed as RFUs per microgram cell protein.
# as §1
# [7] = test system: αvβ3-negative M21− human melanoma cells; assay: Total cellular uptake in αvβ3-negative cells; format: cell-based; conditions: 12.5-100 nM
# From the text: as §2, §1
# αvβ3 = assay: Cell surface αvβ3 level by immunostaining and flow cytometry; format: cell-based, human; conditions: 200 nM, 24 h exposure
# Description: Then, αvβ3 levels were determined by immunostaining with anti-αvβ3 antibody. […] The y axis of each panel indicates the number of cells, while the x axis indicates the log of fluorescence intensity.
# as §1
# A375SM-Luc705-B cells [8] = assay: Short-term toxicity, viable cell count after 48 h (peptide conjugate); format: cell-based
# Description: Toxicity Studies: Cells were treated with various concentrations of oligonucleotides or conjugates under the same conditions as used for the luciferase induction experiments. After 48 h in medium plus 1% FBS, cells were trypsinized and viable cells were counted in an electronic particle counter.
# [9] = Re-dissolution of lyophilized conjugate in sterile water; format: physicochemical; conditions: after dialysis and lyophilization
# From the text: The peptide conjugation reaction occurred between the maleimide of the bicyclic RGD peptide and the 5′ thiol (—SH) of the oligonucleotide (2). The reaction proceeded efficiently and more than 95% of the starting oligonucleotide (2) was converted into conjugates with bicyclic RGD. The conjugates were purified by ion-exchange chromatography (Resource™ Q column, GE Healthcare, Chalfont St. Giles, United Kingdom) under highly denaturing conditions to avoid any sort of precipitation, although this was not expected to be a problem for this type of peptide. […] Similar approaches were used for the preparation of other oligonucleotides and conjugates. In each case the structure of the final product was confirmed by MALDI-TOF mass spectroscopy.
# [10] = listed as RGD-623-Tamra conjugate
compound,measurement,setting,value
5′-GTAATTATTTATAATCGTCC-Tamra-3′ [5MM623-Tamra],luciferase expression,A375SM-Luc705-B cells [1],failed to produce an increase in luciferase expression
"5′-GTTATTCTTTAGAATGGTGC-3′ (antisense GTTATTCTTTAGAATGGTGC; all 2'-O-methyl, all phosphorothioate, T or U not given here; further chemistry not fully specified) [compound 623]",influence of the Tamra fluorophore on the action of 623,"A375SM-Luc705-B cells [1]; RGD conjugate or lipofection, concentrations up to 75 nM",did not affect the action of 623
same,influence of the Tamra fluorophore on the action of 623,A375SM-Luc705-B cells [1]; concentrations above 100 nM,slight augmentation of effect by Tamra
same,luciferase activity,"A375SM-Luc705-B cells [2]; 25-200 nM, 72 h",did not cause a significant increase in luciferase activity
CC(C)[C@@H]1NC(=O)[C@@H](Cc2ccccc2)NC(=O)[C@H](CC(=O)O)NC(=O)CNC(=O)[C@H](CCCN=C(N)N)NC1=O [RGDfV],inhibition of the effect of RGD-623-Tamra on luciferase expression,"A375SM-Luc705-B cells [1]; 0.1-100 μM peptide 30 min prior to 200 nM conjugate, 48 h",progressive inhibition
same,effect of co-incubation on the increased uptake of the RGD-conjugate,A375SM-Luc705-B cells [3]; excess peptide,could be blocked
same,effect of co-incubation on cell associated fluorescence of RGD-623-Tamra conjugate,A375SM-Luc705-B cells [4]; data not shown,substantially reduced total cell associated fluorescence
same,toxicity of the blocking peptide,A375SM-Luc705-B cells [2]; at the concentrations used,does not cause cell detachment or other obvious toxicity
same,effect on the ability of the RPA-623 conjugate to activate luciferase,"A375SM-Luc705-B cells [2]; excess peptide (0.1-10 μM) 30 min prior to 100 nM conjugate, 48 h",completely blocks
same,effect on cellular accumulation of RPA-623-Tamra,A375SM-Luc705-B cells [5],inhibited
C=C1[C@@H](C)[C@H]2[C@H](Cc3ccccc3)NC(=O)[C@]23[C@H](OC(C)=O)/C=C/[C@@](C)(O)C(=O)[C@@H](C)C/C=C/[C@H]3[C@@H]1O [cytochalasin D],cell viability,A375SM-Luc705-B cells [3],No loss of cell viability was detected
same,cell morphology,A375SM-Luc705-B cells [3]; highest concentration,caused some cell rounding
same,effect on uptake of the RGD-oligonucleotide conjugate,A375SM-Luc705-B cells [3],block the uptake
same,effect on cellular accumulation of RPA-623-Tamra,A375SM-Luc705-B cells [5],inhibited
OC[C@H]1O[C@@H]2O[C@H]3[C@H](O)[C@@H](O)[C@@H](O[C@H]4[C@H](O)[C@@H](O)[C@@H](O[C@H]5[C@H](O)[C@@H](O)[C@@H](O[C@H]6[C@H](O)[C@@H](O)[C@@H](O[C@H]7[C@H](O)[C@@H](O)[C@@H](O[C@H]8[C@H](O)[C@@H](O)[C@@H](O[C@H]1[C@H](O)[C@H]2O)O[C@@H]8CO)O[C@@H]7CO)O[C@@H]6CO)O[C@@H]5CO)O[C@@H]4CO)O[C@@H]3CO [β-cyclodextrin],cell viability,A375SM-Luc705-B cells [3],No loss of cell viability was detected
same,effect on uptake of the RGD-oligonucleotide conjugate,A375SM-Luc705-B cells [3],block the uptake
same,effect on cellular accumulation of RPA-623-Tamra,A375SM-Luc705-B cells [5],inhibited
Bivalent-RGD-Mal-S—(CH2)6-5MM623-Tamra,luciferase expression,A375SM-Luc705-B cells [1],failed to produce an increase in luciferase expression
BivalentRGD-Mal-S—(CH2)6-623-Tamra [RGD-623-Tamra],concentration dependence of the luciferase effect,A375SM-Luc705-B cells [1],rises rapidly between zero and 100 nM and then begins to plateau
same,time of maximum effect on luciferase expression,"A375SM-Luc705-B cells [1]; 200 nM, 48 h after removal of the oligonucleotide",72 h
same,time course of the effect on luciferase expression,"A375SM-Luc705-B cells [1]; 24-120 h, conjugate 200 nM, complex 100 nM",rose gradually with time
same,concentration at which substantial effects on luciferase were observed,A375SM-Luc705-B cells [1]; 48 h,50 nM
same,low concentration at which significant effects were still observed,A375SM-Luc705-B cells [1]; 48 h,5 nM
same,luciferase expression,A375SM-Luc705-B cells [1],produced a significant increase in luciferase expression
same,effect on luciferase relative to 623/cationic lipid complex,"A375SM-Luc705-B cells [1]; higher concentrations of RGD-623, complex at 100 nM oligonucleotide",approximately 50%
same,total cellular uptake compared to unconjugated oligonucleotide,"A375SM-Luc705-B cells [3]; 12.5, 50 or 100 nM, 4 h",~2 fold
same,uptake by M21+ cells as compared to M21− cells,[6],about 3 times
same,uptake in M21− cells as compared to 623-Tamra control,[7],slightly greater uptake
same,level of surface αvβ3 expression,αvβ3,no effect
same,level of surface αvβ3 expression,αvβ3; listed as RGD-623 conjugate,lack of down-regulation of αvβ3
same,co-localization with dextran,A375SM-Luc705-B cells [4],Substantial overlap
same,co-localization with transferrin,A375SM-Luc705-B cells [4],no overlap
same,co-localization with dextran,A375SM-Luc705-B cells [4]; [10],significant co-localization
same,co-localization with transferrin,A375SM-Luc705-B cells [4]; [10],no co-localization
same,co-localization with transferrin or dextran markers,A375SM-Luc705-B cells [4],Substantial overlap
same,co-localization with transferrin or dextran markers,A375SM-Luc705-B cells [4]; [10],substantial co-localization
same,co-localization with caveolin-1,"A375SM-Luc705-B cells [4]; between 2 and 6 h, fixed permeabilized cells, 50 nM",significant co-localization
same,co-localization with αvβ3,"A375SM-Luc705-B cells [4]; early (6 h), fixed cells, 50 nM",Early co-localization
same,"co-localization with other markers (EAA1, LAMP1, clathrin)",A375SM-Luc705-B cells [4]; fixed cells,No significant co-localization
same,co-localization with trans-Golgi marker TG230,"A375SM-Luc705-B cells [4]; late (24 h), fixed cells, 50 nM",some co-loacalization
same,cellular uptake seen by confocal microscopy,"A375SM-Luc705-B cells [4]; living cells, 200 nM, complex 100 nM",substantial cellular uptake was observed
same,nuclear fluorescence,"A375SM-Luc705-B cells [4]; living cells, 200 nM, complex 100 nM, listed as RGD-623-Tamra conjugate",no readily observable nuclear fluorescence; also recorded: generally free of fluorescence
same,tolerability by cells,A375SM-Luc705-B cells [8]; concentration range needed for splice correction,well-tolerated by cells
same,short-term toxicity (viable cells),"A375SM-Luc705-B cells [8]; concentrations up to 1000 nM, 48 h",little effect
same,cell loss,A375SM-Luc705-B cells [8]; higher concentrations,did not result in significant cell loss
same,cell rounding,A375SM-Luc705-B cells [8]; higher concentrations,Some cell rounding was observed
same,re-dissolution in sterile water,[9],re-dissolved in sterile water without any difficulty
